Reference: ChEMBL document CHEMBL6096630, “Enhancing therapeutic efficacy in homologous recombination-proficient pancreatic cancer via the combination of PARP1-PROTAC and a BRD4 inhibitor” (Bioorg Med Chem, 2024)
Active and inactive are the calls of the source. The rule behind the calls is not given here.

Columns and labels:
PANC-1 [1] = assay: Induction of cell cycle arrest in human PANC-1 cells assessed as accumulation at G2 phase at 5 uM incubated for 24 hrs by PI staining based flow cytometry (reference value: 9.36 %); assay type: functional
PANC-1 [2] = assay: Induction of DNA damage in human PANC-1 cells assessed as decrease in RAD51 level at 2 uM in presence of JQ1 by Western blot analysis; assay type: functional, cell-based
PANC-1 [3] = assay: Induction of cell cycle arrest in human PANC-1 cells assessed as accumulation at S phase at 0.6 uM incubated for 24 hrs by PI staining based flow cytometry (reference value: 38.94 %); assay type: functional
PANC-1 [4] = assay: Induction of cell cycle arrest in human PANC-1 cells assessed as accumulation at G1 phase at 5 uM incubated for 24 hrs by PI staining based flow cytometry (reference value: 51.70 %); assay type: functional
PANC-1 [5] = assay: Induction of apoptosis in human PANC-1 cells assessed as early apoptotic cells at 2 uM incubated for 48 hrs by Annexin V-FITC/PI staining based flow cytometry (reference value: 1.41 %); assay type: functional
PANC-1 [6] = assay: Induction of cell cycle arrest in human PANC-1 cells assessed as accumulation at G2 phase at 0.6 uM incubated for 24 hrs by PI staining based flow cytometry (reference value: 9.36 %); assay type: functional
PANC-1 [7] = assay: Induction of apoptosis in human PANC-1 cells assessed as viable cells at 2 uM incubated for 48 hrs by Annexin V-FITC/PI staining based flow cytometry (reference value: 91.64 %); assay type: functional; conditions: read-out: Activity
BXPC-3 = assay: Antiproliferative activity against human BXPC-3 cells expressing wild-type BRCA assessed as inhibition of cell survival incubated for 5 days by CCK8 assay; assay type: functional, cell-based; conditions: BXPC-3, 120 h
PANC-1 [8] = assay: Induction of cell cycle arrest in human PANC-1 cells assessed as accumulation at S phase at 2 uM incubated for 24 hrs by PI staining based flow cytometry (reference value: 38.94 %); assay type: functional
PANC-1 [9] = assay: Antitumor activity against human PANC-1 cells xenografted in BALB/c mouse assessed as reduction in tumor growth at 40 mg/kg, ip for 4 weeks administered for 5 days consecutively and 2 days without treatment on every week in presence of JQ1; assay type: functional, organism-based
PANC-1 [10] = assay: Induction of cell cycle arrest in human PANC-1 cells assessed as accumulation at G1 phase at 2 uM incubated for 24 hrs in presence of JQ1 by PI staining based flow cytometry (reference value: 51.70 %); assay type: functional
PANC-1 [11] = assay: Induction of cell cycle arrest in human PANC-1 cells assessed as accumulation at G1 phase at 2 uM incubated for 24 hrs by PI staining based flow cytometry (reference value: 51.70 %); assay type: functional
[12] = Toxicity in BALB/c mouse xenografted with human PANC-1 cells assessed as pathological changes in lung at 40 mg/kg, ip for 4 weeks administered for 5 days consecutively and 2 days without treatment on every week in presence of JQ1 by H and E staining based analysis; assay type: organism-based; conditions: in vivo, 672 h
PANC-1 [13] = assay: Induction of cell cycle arrest in human PANC-1 cells assessed as accumulation at G2 phase at 2.5 uM incubated for 24 hrs by PI staining based flow cytometry (reference value: 9.36 %); assay type: functional
PANC-1 [14] = assay: Induction of cell cycle arrest in human PANC-1 cells assessed as accumulation at G2 phase at 1.2 uM incubated for 24 hrs by PI staining based flow cytometry (reference value: 9.36 %); assay type: functional
PANC-1 [15] = assay: Antiproliferative activity against human PANC-1 cells expressing wild-type BRCA assessed as inhibition of cell survival incubated for 5 days by CCK8 assay; assay type: functional, cell-based; conditions: PANC-1, 120 h
PANC-1 [16] = assay: Induction of apoptosis in human PANC-1 cells assessed as late apoptotic cells at 10 uM incubated for 48 hrs by Annexin V-FITC/PI staining based flow cytometry (reference value: 3.87 %); assay type: functional
PANC-1 [17] = assay: Induction of apoptosis in human PANC-1 cells assessed as late apoptotic cells at 5 uM incubated for 48 hrs by Annexin V-FITC/PI staining based flow cytometry (reference value: 3.87 %); assay type: functional
PANC-1 [18] = assay: Induction of apoptosis in human PANC-1 cells assessed as viable cells at 5 uM incubated for 48 hrs by Annexin V-FITC/PI staining based flow cytometry (reference value: 91.64 %); assay type: functional; conditions: read-out: Activity
[19] = Toxicity in BALB/c mouse xenografted with human PANC-1 cells assessed as pathological changes in heart at 40 mg/kg, ip for 4 weeks administered for 5 days consecutively and 2 days without treatment on every week in presence of JQ1 by H and E staining based analysis; assay type: organism-based; conditions: in vivo, 672 h
CAPAN-1 = assay: Antiproliferative activity against human CAPAN-1 cells expressing BRCA-/- assessed as inhibition of cell survival incubated for 5 days by CCK8 assay; assay type: functional, cell-based; conditions: CAPAN-1, 120 h
PANC-1 [20] = assay: Induction of apoptosis in human PANC-1 cells assessed as viable cells at 10 uM incubated for 48 hrs by Annexin V-FITC/PI staining based flow cytometry (reference value: 91.64 %); assay type: functional; conditions: read-out: Activity
PANC-1 [21] = assay: Induction of apoptosis in human PANC-1 cells assessed as necrotic cells at 2 uM incubated for 48 hrs by Annexin V-FITC/PI staining based flow cytometry (reference value: 3.09 %); assay type: functional
PANC-1 [22] = assay: Induction of DNA damage in human PANC-1 cells assessed as increase in gamma-H2AX level at 2 uM in presence of JQ1 by Western blot analysis; assay type: functional, cell-based
[23] = Toxicity in BALB/c mouse xenografted with human PANC-1 cells assessed as body weight loss at 40 mg/kg, ip for 4 weeks administered for 5 days consecutively and 2 days without treatment on every week; assay type: organism-based; conditions: in vivo, 672 h
PANC-1 [24] = assay: Induction of apoptosis in human PANC-1 cells assessed as early apoptotic cells at 1.2 uM incubated for 48 hrs by Annexin V-FITC/PI staining based flow cytometry (reference value: 1.41 %); assay type: functional
PANC-1 [25] = assay: Induction of apoptosis in human PANC-1 cells assessed as late apoptotic cells at 0.6 uM incubated for 48 hrs by Annexin V-FITC/PI staining based flow cytometry (reference value: 3.87 %); assay type: functional
PANC-1 [26] = assay: Antitumor activity against human PANC-1 cells xenografted in BALB/c mouse assessed as inhibition of tumor weight at 40 mg/kg, ip for 4 weeks administered for 5 days consecutively and 2 days without treatment on every week in presence of JQ1; assay type: functional, organism-based
[27] = Toxicity in BALB/c mouse xenografted with human PANC-1 cells assessed as pathological changes in lung at 40 mg/kg, ip for 4 weeks administered for 5 days consecutively and 2 days without treatment on every week by H and E staining based analysis; assay type: organism-based; conditions: in vivo, 672 h
PANC-1 [28] = assay: Induction of apoptosis in human PANC-1 cells assessed as late apoptotic cells at 2.5 uM incubated for 48 hrs by Annexin V-FITC/PI staining based flow cytometry (reference value: 3.87 %); assay type: functional
PANC-1 [29] = assay: Induction of apoptosis in human PANC-1 cells assessed as late apoptotic cells at 2 uM incubated for 48 hrs by Annexin V-FITC/PI staining based flow cytometry (reference value: 3.87 %); assay type: functional
PANC-1 [30] = assay: Induction of cell cycle arrest in human PANC-1 cells assessed as accumulation at G2 phase at 2 uM incubated for 24 hrs by PI staining based flow cytometry (reference value: 9.36 %); assay type: functional

Row | Structure (SMILES) | Activity (PANC-1 [1]) | Activity (PANC-1 [2]) | Activity (PANC-1 [3]) | Activity (PANC-1 [4]) | Activity (PANC-1 [5]) | Activity (PANC-1 [6]) | viability at 2 µM (PANC-1 [7]) | IC50 (BXPC-3) | Activity (PANC-1 [8]) | Activity (PANC-1 [9]) | Activity (PANC-1 [10]) | Activity (PANC-1 [11]) | Activity [12] | Activity (PANC-1 [13]) | Activity (PANC-1 [14]) | IC50 (PANC-1 [15]) | IC50 (CAPAN-1) | Activity (PANC-1 [21]) | Activity (PANC-1 [29]) | Activity (PANC-1 [30]) | further results
1 | O=C(c1cc(Cc2n[nH]c(=O)c3ccccc23)ccc1F)N1CCN(C(=O)C2CC2)CC1 [OLAPARIB] | 15.24% | Active | 42.54% | 40.8% | 3.48% | 10.68% | 89.7% | < 10 µM | 39.4% | Active | 58.42% | 45.99% | Non-toxic | 14.19% | 12.41% | < 10 µM | < 10 µM | 2.23% | 4.61% | 14.61% | Activity (PANC-1 [16]): 5.35%; Activity (PANC-1 [17]): 4.7%; viability at 5 µM (PANC-1 [18]): 88.2%; Activity [19]: Non-toxic; viability at 10 µM (PANC-1 [20]): 87.3%; Activity (PANC-1 [22]): Active; Activity [23]: Non-toxic; Activity (PANC-1 [24]): 2.88%; Activity (PANC-1 [25]): 4.21%; inhibition (PANC-1 [26]): Active; Activity [27]: Non-toxic; Activity (PANC-1 [28]): 4.53%
2 | O=C1CCC(N2C(=O)c3cccc(NC(=O)CNCCCCCCCCCCC(=O)N4CCN(C(=O)c5cc(Cc6n[nH]c(=O)c7ccccc67)ccc5F)CC4)c3C2=O)C(=O)N1 (centres undefined) | 13.63% | Active | 44.14% | 43.66% | 4.35% | 10.52% | 86.3% | < 10 µM | 41.71% | Active | 50.25% | 43.66% | Non-toxic | 12.98% | 11.34% | < 10 µM | < 10 µM | 3.54% | 5.84% | 14.63% | Activity (PANC-1 [16]): 5.33%; Activity (PANC-1 [17]): 4.37%; viability at 5 µM (PANC-1 [18]): 86.7%; Activity [19]: Non-toxic; viability at 10 µM (PANC-1 [20]): 86.3%; Activity (PANC-1 [22]): Active; Activity [23]: Non-toxic; Activity (PANC-1 [24]): 3.8%; Activity (PANC-1 [25]): 3.89%; inhibition (PANC-1 [26]): Active; Activity [27]: Non-toxic; Activity (PANC-1 [28]): 4.42%
3 | Cc1sc2c(c1C)C(c1ccc(Cl)cc1)=N[C@@H](CC(=O)OC(C)(C)C)c1nnc(C)n1-2 | – | – | – | – | 6.1% | – | 74.4% | < 10 µM | 28.44% | – | – | 59.44% | – | – | – | < 10 µM | < 10 µM | 6.51% | 14.01% | 12.12% | –
